Data as given in patent US7795379B2, “Isolated nucleic acid molecules encoding cancer associated antigens, the antigens per se, and uses thereof” (Ludwig Institute for Cancer Research, priority 1999, dated 2010).
Values belong to the molecule of their own block, whether it stands above or below them.

What was measured:
CD4^+ T cells = assay: IFN-gamma ELISPOT with overlapping NY-BR-1 18-mers, CD4+ T cells of NY-BR-1 positive patients; type: cell-based, human; settings: IFN-gamma ELISPOT after presensitization with 18-mer, numbering by SEQ ID NO: 32
Experimental: (§1) CD4^+ and CD8^+ T lymphocytes were separated from PBMC of NY-BR-1 positive patients by magnetic beads (MiniMACS) and seeded into 48-well plates at a concentration of 2.5-5×10^5 cells per well in RPMI medium 1640 supplemented with 10% human serum, L-asparagine (50 mg/l), L-arginine (242 mg/l), and L-glutamine (300 mg/l). PBMC depleted of T cells were used as antigen presenting cells. After irradiation, these cells were incubated with 39 single peptides (10 μg/ml) spanning amino acids 1004-1397 of NY-BR-1(SEQ ID NO: 32) each of 18 amino acids in length and overlapping in 8 positions on each terminus, for 1 hour at room temperature and added to plates at a concentration of 1×10^6 cells per well. IL-2 and IL-4 (2.5 ng/ml and 50 U/ml, respectively) were added to CD4^+ T cell cultures, and IL-2 and IL-7 (2.5 ng/ml and 10 ng/ml, respectively) to CD8^+ T cells. Peptide specific T cell responses against the stimulating epitope were determined by IFN-gamma ELISPOT assays 6 to 12 days after presensitization.
(§2) Flat-bottomed, 96 well nitrocellulose plates were coated with IFN-γ mAb and incubated overnight at 4° C. After washing with PBS, the plates were blocked with 10% human AB serum for 1 hour at 37° C. Presensitized CD4^+ or CD8^+ T cells from (1×10^3 to 5×10^4) and 5×10^4 peptide-pulsed APC (autologous Dendritic Cells or Epstein Barr Virus transfected B cells) were added to each well and incubated for 20 hours in RPMI medium 1640 lacking both IL-2 and human serum. Plates were then washed thoroughly with PBS to remove cells, and biotinylated IFN-γ mAbs were added to each well. After incubation for 2 hours at 37° C., the plates were washed and developed with streptavidin-alkaline phosphase for 1 hour at room temperature. After washing, substrate (5-bromo-4-chloro-3-indolyl phosphate/nitroblue tetrazolium) was added and incubated for 5 minutes.
(§3) Both CD4^+ and CD8^+ T cells were collected from twenty patients, who had been diagnosed with cancer and expressed NY-BR-1, as determined via the methods set forth supra. These CD4^+ and CD8^+ T cells were then analyzed for spontaneous NY-BR-1 specific, CD4^+ and CD8^+ responses.
(§4) Lymphocytes, which had been purified in accordance with the standard methods set forth supra, were presensitized with synthetic 18 mers which overlapped each other, and spanned amino acids […] of SEQ ID NO: 32.
(§5) Following the presensitization, effector cell populations were tested for recognition of ELISPOT assays, with autologous, EBV transfected B cells, and T2 cell lines being used as the antigen presenting cells in the ELISPOT assays. ELISPOT assays were carried out as described supra.

CD8^+ T cells = assay: IFN-gamma ELISPOT with overlapping NY-BR-1 18-mers, CD8+ T cells of NY-BR-1 positive patients; type: cell-based, human; settings: for recognized by CD8+ cells: IFN-gamma ELISPOT after presensitization with 18-mer, numbering by SEQ ID NO: 32
Experimental: as §1, §2, §3, §4, §5

CD8^+ cells = assay: ELISPOT assay (interferon gamma) of CTL stimulation by NY-BR-1 peptides pulsed onto T2 cells; type: cell-based, human; settings: peptides pulsed onto irradiated T2 cells at 10 ug/ml; CD8+ effector cells presensitized with peptide; HLA-A2
Experimental: A series of peptides were synthesized, based upon the amino acid sequence of NY-BR-1, as set forth in SEQ ID NO: 23 and the concatenation of SEQ ID NOS: 30 & 23, as described supra and set forth at SEQ ID NO: 32. These were then tested for their ability to bind to HLA-A2 molecules and to stimulate CTL proliferation, using an ELISPOT assay. This assay involved coating 96-well, flat bottom nitrocellulose plates with 5 ug/ml of anti-interferon gamma antibodies in 100 ul of PBS per well, followed by overnight incubation. Purified CD8^+ cells, which had been separated from PBL samples via magnetic beads coated with anti-CD8 antibodies were then added, at 1×10^5 cells/well, in RPMI 1640 medium, that had been supplemented with 10% human serum, L-asparagine (50 mg/l), L-arginine (242 mg/l), L-glutamine (300 mg/l), together with IL-2 (2.5 ng/ml), in a final volume of 100 ul. CD8^+ effector cells were prepared by presensitizing with peptide, and were then added at from 5×103 to 2×10^4 cells/well. Peptides were pulsed onto irradiated T2 cells at a concentration of 10 ug/ml for 1 hour, washed and added to effector cells, at 5×10^4 cells/well. The plates were incubated for 16 hours at 37° C., washed six times with 0.05% Tween 20/PBS, and were then supplemented with biotinylated, anti-interferon gamma specific antibody at 0.5 ug/ml. After incubation for 2 hours at 37° C., plates were washed, and developed with commercially available reagents, for 1 hour, followed by 10 minutes of incubation with dye substrate. Plates were then prepped for counting, positives being indicated by blue spots. The number of blue spots/well was determined as the frequency of […] specific CTLs/well.
Experiments were run, in triplicate, and total number of CTLs was calculated. As controls, one of reagents alone, effector cells alone, or antigen presenting cells alone were used. The difference between the number of positives in stimulated versus non-stimulated cells, was calculated as the effective number of peptide specific CTLs above background.

CD8^+ T cell clones = assay: T cell stimulation assay: TNF-α production by peptide/HLA-A2 specific CTL clones with COS-7 transfectants (NY-BR-1 + HLA-A2); type: cell-based, human; settings: COS-7 cells transfected with NY-BR-1 and HLA-A2; CD8+ T cell clones of breast cancer patient NW-1100
Experimental: Sequences encoding NY-BR-1 were excised from plasmid pQE9, via standard restriction enzyme digestion, and were cloned into BamHI-Hind III sites of commercially available plasmid pcDNA31 (−).
The resulting vectors were then transfected into COS-7 cells. To accomplish this, 2×10^4COS-7 cells were admixed with 150 ng of the construct described supra, and 150 ng of plasmid pcDNA-AmpI, which contained cDNA encoding HLA-A2. The standard DE AE-dextran chloroquine method was used. Transfectants were then incubated at 37° C. for 48 hours, and then tested in a T cell stimulation assay, after 24 hours, as described infra.
The transfectants were tested to determine if they could stimulate production of TNF-α by CTLs specific for complexes of HLA-A2 molecules and one of the peptides described supra. The CTLs used were CD8^+ T cell clones. […]
To test if the transfectants stimulated the CD8^+ cells, 5000 of these CD8^+ cells, in 100 μl RPMI supplemented with 10% human serum, and 25 U/ml of recombinant human IL-2 were added to micowells containing the transfectants. After 24 hours, 50 μl samples of supernatant were collected, and TNFα content was determined by testing cytotoxicity against WEHI 164 clone 13 cells, in an MTT colorimetric assay, which is a standard method for showing TNFα production.

[1] = target: T1, serum samples from breast cancer patients and normal serum samples (Homo sapiens, UniProt Q9BXX3); assay: Western blotting of serum samples against recombinant NY-BR-1 protein fragments; type: binding
T1 construct: made in house
T1 sequence (Q9BXX3 1049-1244): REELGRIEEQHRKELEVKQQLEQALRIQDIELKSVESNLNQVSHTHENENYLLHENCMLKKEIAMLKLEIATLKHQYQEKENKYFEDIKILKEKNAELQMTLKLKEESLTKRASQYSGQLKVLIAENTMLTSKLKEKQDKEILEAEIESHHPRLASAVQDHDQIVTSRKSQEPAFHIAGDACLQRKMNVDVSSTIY
Experimental: The frequency of antibody response against NY-BR-1 in breast cancer patients was tested. To do this, a recombinant protein consisting of amino acids 993-1188 of SEQ ID NO: 23 was prepared. (This is the protein encoded by clone BR 17-128, referred to supra). A total of 140 serum samples were taken from breast cancer patients, as were 60 normal serum samples. These were analyzed via Western blotting, using standard methods.
An additional set of experiments was then carried out to determine if sera recognized the portion of NY-BR-1 protein with repetitive elements. To do this, a different recombinant protein, consisting of amino acids 405-1000 was made, and tested in Western blot assays.

Molecule: EDIKILKEKNAELQMTLK [p1134-1151]
CD4+ cells reacted / recognized by CD4+ T cells (CD4^+ T cells): reacted

Molecule: ENQKVKWEQELCSVRLTL [p1014-1031]
CD4+ cells reacted / recognized by CD4+ T cells (CD4^+ T cells; listed as 1011-1021): reacted

Molecule: FNYNNHLKNRIYQYEKEK [p1374-1391]
CD4+ cells reacted / recognized by CD4+ T cells (CD4^+ T cells): reacted

Molecule: HENENYLLHENCMLKKEI [p1094-1111]
CD4+ cells reacted / recognized by CD4+ T cells (CD4^+ T cells): reacted

Molecule: HIAGDACLQRKMNVDVSS [p1224-1241]
recognized by CD8+ cells (CD8^+ T cells): recognized

Molecule: HLLKEKNEEIFNYNNHLK [p1364-1381]
CD4+ cells reacted / recognized by CD4+ T cells (CD4^+ T cells): reacted

Molecule: KINLNYAGDALRENTLVS [p1264-1281]
recognized by CD8+ cells (CD8^+ T cells): recognized
CD4+ cells reacted / recognized by CD4+ T cells (CD4^+ T cells): reacted

Molecule: LLSHGAVIEV [NY-BR-1 derived peptide, HLA-A2]
reactive in ELISPOT (peptide specific CTLs above background) (CD8^+ cells): reactive
peptide/HLA-A2 complexes recognized by CD8+ T cells (TNFα production); naturally processed epitope (CD8^+ T cell clones): natural epitopes

Molecule: LRENTLVSEHAQRDQRET [p1274-1291]
recognized by CD8+ cells (CD8^+ T cells): recognized

Molecule: QQQLVHAHKKADNKSKIT [p1334-1351]
recognized by CD8+ cells (CD8^+ T cells): recognized

Molecule: QYQEKENKYFEDIKILKE [p1124-1141]
CD4+ cells reacted / recognized by CD4+ T cells (CD4^+ T cells): reacted

Molecule: SLDQKLFQL [NY-BR-1 derived peptide, HLA-A2]
reactive in ELISPOT (peptide specific CTLs above background) (CD8^+ cells): reactive

Molecule: SLSKILDTV [NY-BR-1 derived peptide, HLA-A2]
reactive in ELISPOT (peptide specific CTLs above background) (CD8^+ cells): reactive
peptide/HLA-A2 complexes recognized by CD8+ T cells (TNFα production); naturally processed epitope (CD8^+ T cell clones): natural epitopes

Molecule: TSRKSQEPAFHIAGDACL [p1214-1231]
recognized by CD8+ cells (CD8^+ T cells): recognized
HLA restriction (CD8^+ T cells; recognized when pulsed onto T2 cells, patient 1): restricted to HLA-A2

Molecule: YSGQLKVLIAENTMLTSK [p1164-1181]
CD4+ cells reacted / recognized by CD4+ T cells (CD4^+ T cells): reacted

B1: amino acids 405-1000: recombinant protein consisting of amino acids 405-1000 of NY-BR-1, the portion with repetitive elements (protein, UniProt Q9BXX3 405-1000, looked up, fragment)
chain: KFTWAAKGRPRKIAWEKKETPVKTGCVARVTSNKTKVLEKGRSKMIACPTKESSTKASANDQRFPSESKQEEDEEYSCDSRSLFESSAKIQVCIPESIYQKVMEINREVEEPPKKPSAFKPAIEMQNSVPNKAFELKNEQTLRADPMFPPESKQKDYEENSWDSESLCETVSQKDVCLPKATHQKEIDKINGKLEESPNKDGLLKATCGMKVSIPTKALELKDMQTFKAEPPGKPSAFEPATEMQKSVPNKALELKNEQTLRADEILPSESKQKDYEENSWDTESLCETVSQKDVCLPKAAHQKEIDKINGKLEGSPVKDGLLKANCGMKVSIPTKALELMDMQTFKAEPPEKPSAFEPAIEMQKSVPNKALELKNEQTLRADEILPSESKQKDYEESSWDSESLCETVSQKDVCLPKATHQKEIDKINGKLEESPDNDGFLKAPCRMKVSIPTKALELMDMQTFKAEPPEKPSAFEPAIEMQKSVPNKALELKNEQTLRADQMFPSESKQKKVEENSWDSESLRETVSQKDVCVPKATHQKEMDKISGKLEDSTSLSKILDTVHSCERARELQKDHCEQRTGKMEQMKKKFCVLK
reactivity of the four antibody positive sera in Western blot ([1]; the four cancer sera positive for amino acids 993-1188): None of the four antibody positive sera reacted

reactivity of normal sera in Western blot ([1]; 60 normal serum samples): negative
cancer sera samples positive in Western blot ([1]; 140 serum samples from breast cancer patients): Four
B2: amino acids 993-1188: recombinant protein consisting of amino acids 993-1188 of SEQ ID NO: 23 (NY-BR-1) (protein)
chain: REELGRIEEQHRKELEVKQQLEQALRIQDIELKSVESNLNQVSHTHENENYLLHENCMLKKEIAMLKLEIATLKHQYQEKENKYFEDIKILKEKNAELQMTLKLKEESLTKRASQYSGQLKVLIAENTMLTSKLKEKQDKEILEAEIESHHPRLASAVQDHDQIVTSRKSQEPAFHIAGDACLQRKMNVDVSSTIY
